Source: article PMC7617869, “Molecular glues that inhibit deubiquitylase activity and inflammatory signaling” (Nature Structural & Molecular Biology, 2025)
Where “and” joins values, the source holds several entries; their conditions need not be identical. Equal values may be shown once.

Tests used:
[1] = target: T1, BRCC36–Abraxas 2 complex (Homo sapiens, UniProt P46736+Q15018); assay: BRCC36–Abraxas 2 IQF DUB activity assay; type: biochemical; conditions: for Normalised V0: Fig. 1e, BRCC36-Abraxas2
T1 construct: made in house; host or cells: Spodoptera frugiperda (Sf9) insect cells, MultiBac
Procedure: (§1) IQF assays were performed in DUB reaction buffer containing 50 mM HEPES–NaOH pH 7.0, 100 mM NaCl, 0.1 mg ml^−1 BSA, 1 mM DTT and 0.03% v/v Brij-35. […] The final concentration of BRISC WT, all BRISC mutants, HsBRISCΔLoop, MmBRISC and DrBRISCΔNΔC was 1 nM. Other enzymes were tested at the following concentrations: 5 nM ARISC (FL), 10 nM CfBRISCΔNΔC, 250 nM AMSH* (ref. [43]), 500 nM USP2 and 1 μM trypsin (Sigma, 9002-07-7). For Michaelis–Menten experiments, 1 nM BRISC with 0–1 μM IQF K63-linked diubiquitin substrate was used. Michaelis–Menten analyses and Lineweaver–Burk plots were calculated using GraphPad Prism (version 9.0).
(§2) To assess enzymatic activity, BRISC complexes were diluted to concentrations between 1 nM and 50 nM. […] Then, 20-μl enzyme reactions were carried out in 384-well black flat-bottom low-flange plates (Corning, 35373). DUB activity was measured using IQF K63-linked diubiquitin (LifeSensors, DU6303) at 50 nM. Cleaved diubiquitin was monitored by measuring fluorescence intensity (excitation, 544 nm; emission, 575 nm; dichroic mirror, 560 nm). Fluorescence intensity was measured every minute for 30 min at 30 °C. Fluorescence intensity units were plotted against time to generate a linear reaction progress curve, where the initial velocity (V0) corresponds to the gradient of the curve (typically achieved within 15 min). IC50 values were calculated using the GraphPad Prism (version 9.0) built-in dose–response equation for inhibitor concentration versus response (variable slope).

[2] = test system: ISG expression in MCF10A Cas9 cells expressing BRCC45 R137A; assay: MCF10A BRCC45 R137A ISG expression (RT–qPCR); type: cell-based, human; conditions: hIFNα2 75 ng/ml, 2.5 μM, 4 h
[3] = target: T2, ARISC (FL) (Homo sapiens, UniProt P46736+Q6UWZ7+Q9NXR7); assay: In-gel deubiquitylation assay, TAMRA-labeled K63-tetraubiquitin, ARISC; type: biochemical; conditions: 10 μM or 100 μM inhibitor
T2 construct: full-length BRISC (FL), ARISC (FL); made in house; host or cells: Spodoptera frugiperda Sf9 insect cells (MultiBac)
Procedure: The inhibitor capzimin (Merck) was diluted in 1 mM DTT and incubated for 30 min at room temperature to reduce disulfide bonds required for inhibitor activity. […] DUBs were incubated with 750 nM TAMRA-labeled K63-tetraubiquitin (LifeSensors, SI6304T) for 10 min at 30 °C. Reactions were quenched by adding 2.5 μl of 4× SDS–PAGE loading dye (240 mM Tris-HCl pH 6.8, 40% v/v glycerol, 8% w/v SDS, 0.04% w/v bromophenol blue and 5% v/v β-mercaptoethanol). The samples were resolved on 4–12% NuPAGE Bis–Tris gels (Thermo Fisher Scientific). Gels were scanned using an iBright FL 1500 (Thermo Fisher Scientific) (excitation, 515–545 nm; emission, 568–617 nm; exposure, 500 ms).

[4] = target: T3, BRISC (FL) / BRISCΔNΔC (Homo sapiens, UniProt P46736+Q15018+Q9NXR7); assay: Mass photometry of BRISC dimer formation; conditions: for Dimer fraction: 50 nM BRISCΔNΔC
T3 construct: BRISCΔNΔC (MERIT40ΔN, Abraxas 2ΔC); made in house; host or cells: Spodoptera frugiperda Sf9 insect cells (MultiBac)
Procedure: Immediately before mass photometry measurement, the BRISC–inhibitor mix was diluted in 25 mM HEPES pH 7.5, 150 mM NaCl and 1 mM TCEP to 10 nM BRISC ([…]). Then, 12 μl of the diluted sample was used for the final mass photometry measurement, following autofocus stabilization. […] Next, 0.5 μl of inhibitor was mixed with 19.5 μl of 50 nM BRISCΔNΔC (2.5% v/v DMSO) and incubated at room temperature for 15 min. The BRISC–inhibitor mix was used directly for mass photometry measurement using buffer-free autofocus stabilization.
Microscope coverslips were prepared according to an established protocol. Experiments were performed using a OneMP mass photometer (Refeyn). Videos were recorded for 60 s using AcquireMP (Refeyn) and processed using DiscoverMP (Refeyn). Mass photometry image processing was previously described. Briefly, contrast-to-mass (C2M) calibration was performed using protein standards (66–669 kDa) diluted in buffer (25 mM HEPES pH 7.5, 150 mM NaCl and 1 mM TCEP). […] The mass distribution from each run was in the form of a histogram, where the count refers to each landing event and a Gaussian sum is fitted to the data. The relative amount of each species was calculated as the area of each Gaussian, where σ refers to the s.d. of the fitted Gaussian. The dimer fraction refers to the percentage of the total counts corresponding to the 564-kDa BRISCΔNΔC dimer complex. Curves and half-maximal effective concentration values were fitted and calculated using the GraphPad Prism (version 9.0) built-in dose–response equation for concentration of agonist versus response (variable slope).

[5] = target: T4, ARISC (Homo sapiens, UniProt P46736+Q6UWZ7+Q9NXR7); assay: ARISC IQF DUB activity assay; type: biochemical; conditions: for Normalised V0: Fig. 1e, ARISC
T4 construct: full-length BRISC (FL), ARISC (FL); made in house; host or cells: Spodoptera frugiperda (Sf9) insect cells, MultiBac
Procedure: as §1, §2

With `O=C(NC1CCNCC1)c1nn(C(=O)c2c(Cl)cccc2Cl)cc1NC(=O)c1c(Cl)cccc1Cl` [JMS-175-2] the “Normalised V0” value ([1]; JMS-175-2 0.02 μM) was 0.9193 and 1.28 and 0.6661, the “Normalised V0” value ([1]; JMS-175-2 0.0399999 μM) was 0.9382 and 1.101 and 1.021 and the “Normalised V0” value ([1]; JMS-175-2 0.0599997 μM) was 0.9046 and 1.264. For the same molecule, the “Normalised V0” value ([1]; JMS-175-2 0.0799994 μM) was 0.9962 and 1.366 and 1.351, the “Normalised V0” value ([1]; JMS-175-2 0.119998 μM) was 0.9007 and 1.233 and 1.5528 and the “Normalised V0” value ([1]; JMS-175-2 0.199996 μM) was 1.097 and 1.27 and 0.9275. The “Normalised V0” value ([1]; JMS-175-2 0.499975 μM) was 0.8805 and 1.153 and 1.01, the “Normalised V0” value ([1]; JMS-175-2 0.799936 μM) was 0.7961 and 1.246 and 1.323 and the “Normalised V0” value ([1]; JMS-175-2 1.25984 μM) was 1.021 and 1.5206 and 1.034. For the same molecule, the “Normalised V0” value ([1]; JMS-175-2 1.9996 μM) was 0.8007 and 0.8599 and 1.275, the “Normalised V0” value ([1]; JMS-175-2 3.159 μM) was 1.12 and 1.1529 and 0.9992 and the “Normalised V0” value ([1]; JMS-175-2 5.19739 μM) was 0.8446 and 1.053 and 1.407. For the same molecule, the “Normalised V0” value ([1]; JMS-175-2 7.99364 μM) was 0.9387 and 0.8597 and 1.27, the “Normalised V0” value ([1]; JMS-175-2 12.7839 μM) was 0.8621 and 1.3106 and 1.2815 and the “Normalised V0” value ([1]; JMS-175-2 19.96 μM) was 0.8364 and 1.032 and 1.13. For the same molecule, the “Normalised V0” value ([1]; JMS-175-2 31.4999 μM) was 0.8279 and 0.9824 and 0.8224, the “Normalised V0” value ([1]; JMS-175-2 50.147 μM) was 0.8729 and 0.9534 and 1.051 and the “Normalised V0” value ([1]; JMS-175-2 79.7601 μM) was 0.848 and 0.9243 and 1.386. The “Normalised V0” value ([1]; JMS-175-2 125.99 μM) was 0.7998 and 0.9987 and 1.073, the “inhibition of BRCC36–Abraxas 2 complex” value ([1]; minimally active complex) was “did not inhibit” and the “ISG expression (ISG15, IFIT1, IFIT2, IFITM1, CXCL10)” value [2] was “a reduction in ISG expression was not observed”. The “inhibition of ARISC activity against tetraubiquitin” value [3] was “did not inhibit”, the “dimer formation with increasing inhibitor concentration (mass photometry)” value [4] was “dose-dependent increase in dimer formation” and the Dimer fraction ([4]; [Inhibitor (μM)] 5000) was 0.32 and 0.27 and 0.22. For the same molecule, the Dimer fraction ([4]; [Inhibitor (μM)] 10000) was 0.35 and 0.32 and 0.21, the “inhibition of ARISC” value [5] was “did not inhibit” and the “Normalised V0” value ([5]; JMS-175-2 0.02 μM) was 0.8556 and 0.9425 and 1.0233. The “Normalised V0” value ([5]; JMS-175-2 0.0399999 μM) was 1.026 and 1.067 and 1.046, the “Normalised V0” value ([5]; JMS-175-2 0.0599997 μM) was 0.904 and 0.9422 and 0.9811 and the “Normalised V0” value ([5]; JMS-175-2 0.0799994 μM) was 0.9323 and 0.9821 and 1.136. For the same molecule, the “Normalised V0” value ([5]; JMS-175-2 0.119998 μM) was 0.8786 and 0.8823 and 0.8932, the “Normalised V0” value ([5]; JMS-175-2 0.199996 μM) was 0.9071 and 0.9585 and 0.9413 and the “Normalised V0” value ([5]; JMS-175-2 0.499975 μM) was 0.8879 and 0.8767 and 0.9696. For the same molecule, the “Normalised V0” value ([5]; JMS-175-2 0.799936 μM) was 0.7555 and 0.9585 and 0.9201, the “Normalised V0” value ([5]; JMS-175-2 1.25984 μM) was 0.8739 and 0.9751 and 0.9993 and the “Normalised V0” value ([5]; JMS-175-2 1.9996 μM) was 0.8524 and 0.9491 and 1.046. The “Normalised V0” value ([5]; JMS-175-2 3.159 μM) was 0.8187 and 0.9789 and 0.9215, the “Normalised V0” value ([5]; JMS-175-2 5.19739 μM) was 0.8621 and 0.9152 and 0.9509 and the “Normalised V0” value ([5]; JMS-175-2 7.99364 μM) was 0.8584 and 0.954 and 0.9288. For the same molecule, the “Normalised V0” value ([5]; JMS-175-2 12.7839 μM) was 0.8845 and 0.9334 and 1.056, the “Normalised V0” value ([5]; JMS-175-2 19.96 μM) was 0.8867 and 0.9068 and 0.9342 and the “Normalised V0” value ([5]; JMS-175-2 31.4999 μM) was 0.9307 and 0.9204 and 1.017. The “Normalised V0” value ([5]; JMS-175-2 50.147 μM) was 0.795 and 0.9622 and 0.9115 and the “Normalised V0” value ([5]; JMS-175-2 79.7601 μM) was 0.6555 and 0.8717 and 0.8624.
